Here are results for one compound from ChEMBL document CHEMBL4368932 (Bioorg Med Chem, 2019).

Active and inactive are the calls of the source. The calls are words filed in the database; no cut-off is given here. Some results are limits rather than exact numbers.

The target in series [1] is T1, Phosphatidylinositol 4,5-bisphosphate 3-kinase catalytic subunit delta isoform (Homo sapiens, UniProt O00329).
T1 sequence (O00329 whole entry): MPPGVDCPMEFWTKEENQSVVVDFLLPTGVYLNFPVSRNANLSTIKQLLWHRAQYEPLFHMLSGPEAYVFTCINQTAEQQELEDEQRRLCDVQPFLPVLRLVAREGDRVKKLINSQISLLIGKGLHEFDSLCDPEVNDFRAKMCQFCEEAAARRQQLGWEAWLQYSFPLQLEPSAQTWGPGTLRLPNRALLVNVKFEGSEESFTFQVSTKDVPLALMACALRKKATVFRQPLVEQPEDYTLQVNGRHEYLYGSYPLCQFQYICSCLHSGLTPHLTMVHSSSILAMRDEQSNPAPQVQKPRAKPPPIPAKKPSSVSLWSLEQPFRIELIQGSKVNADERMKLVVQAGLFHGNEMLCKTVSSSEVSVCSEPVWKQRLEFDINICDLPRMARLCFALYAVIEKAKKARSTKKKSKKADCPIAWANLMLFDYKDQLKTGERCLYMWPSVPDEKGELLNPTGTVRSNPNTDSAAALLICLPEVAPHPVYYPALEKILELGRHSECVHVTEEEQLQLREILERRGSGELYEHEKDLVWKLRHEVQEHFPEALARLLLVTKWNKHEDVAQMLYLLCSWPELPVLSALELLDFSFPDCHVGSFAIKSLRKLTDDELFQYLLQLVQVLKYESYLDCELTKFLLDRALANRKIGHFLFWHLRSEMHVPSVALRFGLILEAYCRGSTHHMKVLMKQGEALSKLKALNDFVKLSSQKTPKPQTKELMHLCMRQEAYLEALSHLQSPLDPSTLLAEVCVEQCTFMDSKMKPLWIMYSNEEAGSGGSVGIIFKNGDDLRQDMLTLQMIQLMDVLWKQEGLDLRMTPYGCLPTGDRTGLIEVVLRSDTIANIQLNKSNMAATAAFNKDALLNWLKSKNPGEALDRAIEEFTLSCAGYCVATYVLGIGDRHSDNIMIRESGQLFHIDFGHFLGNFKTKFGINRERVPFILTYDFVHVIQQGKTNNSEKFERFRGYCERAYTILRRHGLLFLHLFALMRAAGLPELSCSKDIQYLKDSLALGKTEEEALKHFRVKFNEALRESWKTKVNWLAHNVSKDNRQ
Briefly: Inhibition of recombinant human PI3Kdelta using PIP2 as substrate after 35 to 40 mins by HTRF assay.

The target of series [2] is Phosphatidylinositol 4,5-bisphosphate 3-kinase catalytic subunit alpha isoform (Homo sapiens, UniProt P42336). Nature of the series: Inhibition of human PI3Kalpha using phosphatidyl inositol as substrate after 3 hrs by Kinase-Glo Plus reagent-based luminescence assay.
Series [3] concerns the target Phosphatidylinositol 4,5-bisphosphate 3-kinase catalytic subunit beta isoform (Homo sapiens, UniProt P42338). Nature of the series: Inhibition of recombinant human PI3Kbeta using PIP2 as substrate after 35 to 40 mins by HTRF assay.
The target of series [4] is Phosphatidylinositol 4,5-bisphosphate 3-kinase catalytic subunit gamma isoform (Homo sapiens, UniProt P48736). Nature of the series: Inhibition of recombinant human PI3Kgamma using PIP2 as substrate after 35 to 40 mins by HTRF assay.
Series [5] concerns B-cell. Briefly: Antiproliferative activity against anti-IgM antibody-stimulated BALB/c mouse B cells after 2 days by Alamar Blue reagent-based assay. The conditions noted are these: 48 h.
Series [6] in a line: Intrinsic clearance in CD1 mouse liver microsomes at 0.2 uM up to 45 mins in presence of NADPH by LC-MS/MS analysis. It counts as ADME, Microsome. The conditions noted are these: read-out: CLH.
Series [7] can be described thus: Aqueous solubility of compound at pH 6.8 Japanese Pharmacopoeia 2nd fluid for disintegration test at 130 uM after 20 hrs by liquid chromatography method. Format: physicochemical.
Series [8] in a line: Permeability of the compound at 50 uM after 2 hrs by PAMPA. It counts as ADME. The settings on record: read-out: permeability.
Series [9] addresses T2, Cytochrome P450 1A2 (Homo sapiens, UniProt P05177).
T2 sequence (P05177 whole entry): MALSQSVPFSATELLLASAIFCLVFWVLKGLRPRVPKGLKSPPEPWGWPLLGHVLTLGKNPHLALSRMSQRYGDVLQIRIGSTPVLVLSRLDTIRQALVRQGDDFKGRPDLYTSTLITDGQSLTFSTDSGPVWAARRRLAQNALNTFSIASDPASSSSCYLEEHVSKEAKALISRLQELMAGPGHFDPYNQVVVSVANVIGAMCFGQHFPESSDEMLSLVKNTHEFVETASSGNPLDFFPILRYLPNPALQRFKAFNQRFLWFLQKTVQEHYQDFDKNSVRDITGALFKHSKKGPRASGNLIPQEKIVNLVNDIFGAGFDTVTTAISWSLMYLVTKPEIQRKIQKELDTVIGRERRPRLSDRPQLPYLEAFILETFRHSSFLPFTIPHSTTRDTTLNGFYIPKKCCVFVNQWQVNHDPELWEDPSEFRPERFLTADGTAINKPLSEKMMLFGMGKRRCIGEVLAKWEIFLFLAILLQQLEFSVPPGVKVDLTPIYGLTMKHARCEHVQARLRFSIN
Briefly: Inhibition of CYP1A2 in human liver microsomes at 5 uM using phenacetin as substrate after 20 mins by LC-MS/MS analysis. Format: ADME.

For series [10], the target named is T3, Cytochrome P450 2C8 (Homo sapiens, UniProt P10632).
T3 sequence (P10632 whole entry): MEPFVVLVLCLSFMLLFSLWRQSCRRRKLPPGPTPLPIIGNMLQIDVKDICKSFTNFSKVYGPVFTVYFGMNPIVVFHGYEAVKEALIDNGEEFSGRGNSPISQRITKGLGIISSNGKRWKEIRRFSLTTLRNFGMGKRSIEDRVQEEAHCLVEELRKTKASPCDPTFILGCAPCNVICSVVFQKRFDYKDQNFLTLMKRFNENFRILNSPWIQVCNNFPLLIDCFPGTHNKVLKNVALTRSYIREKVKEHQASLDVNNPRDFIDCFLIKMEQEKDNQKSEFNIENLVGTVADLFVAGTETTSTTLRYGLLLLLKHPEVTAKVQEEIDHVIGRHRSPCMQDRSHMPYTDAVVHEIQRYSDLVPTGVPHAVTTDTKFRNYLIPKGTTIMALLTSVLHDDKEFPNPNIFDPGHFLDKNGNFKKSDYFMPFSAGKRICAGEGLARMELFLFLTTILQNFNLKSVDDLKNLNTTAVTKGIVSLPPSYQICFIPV
Briefly: Inhibition of CYP2C8 in human liver microsomes at 5 uM using amodiaquine as substrate after 20 mins by LC-MS/MS analysis. It counts as ADME.

The target of series [11] is Cytochrome P450 2C9 (Homo sapiens, UniProt P11712). Briefly: Inhibition of CYP2C9 in human liver microsomes at 5 uM using diclofenac as substrate after 20 mins by LC-MS/MS analysis. It counts as ADME.
The target of series [12] is Cytochrome P450 2C19 (Homo sapiens, UniProt P33261). Briefly: Inhibition of CYP2C19 in human liver microsomes at 5 uM using S-mephenytoin as substrate after 20 mins by LC-MS/MS analysis. Format: ADME.
The target in series [13] is Cytochrome P450 2D6 (Homo sapiens, UniProt P10635). Nature of the series: Inhibition of CYP2D6 in human liver microsomes at 5 uM using dextromethorphan as substrate after 20 mins by LC-MS/MS analysis. It counts as ADME.
For series [14], the target named is Cytochrome P450 3A4 (Homo sapiens, UniProt P08684). Nature of the series: Inhibition of CYP3A4 in human liver microsomes at 5 uM using midazolam as substrate after 20 mins by LC-MS/MS analysis. It counts as ADME.
A short description of series [15]: Total clearance in BALB/c mouse at 1 mg/kg, iv or 3 mg/kg, po by LC-MS/MS analysis. The settings on record: in vivo. It counts as ADME, organism-based.
The nature of series [16]: Volume of distribution at steady state in BALB/c mouse at 1 mg/kg, iv or 3 mg/kg, po by LC-MS/MS analysis. Format: ADME, organism-based. The settings on record: in vivo, read-out: Vdss.
Series [17] in a line: Half life in BALB/c mouse at 1 mg/kg, iv or 3 mg/kg, po by LC-MS/MS analysis. Format: ADME, organism-based. The conditions noted are these: in vivo.
The nature of series [18]: Cmax in BALB/c mouse at 1 mg/kg, iv or 3 mg/kg, po by LC-MS/MS analysis. The conditions noted are these: in vivo. It counts as ADME, organism-based.
The nature of series [19]: Tmax in BALB/c mouse at 1 mg/kg, iv or 3 mg/kg, po by LC-MS/MS analysis. The conditions noted are these: in vivo. It counts as ADME, organism-based.
Series [20] in a line: AUC (24 hrs) in BALB/c mouse at 3 mg/kg, po by LC-MS/MS analysis. It counts as ADME, organism-based. Also on record: dose 3 mg/kg, time < 24 hr, route oral. The settings on record: in vivo.
The nature of series [21]: Unbound fraction in mouse plasma at 2 uM incubated for 6 hrs by LC-MS/MS analysis. Format: ADME, cell-free.
Series [22] can be described thus: Oral bioavailability in BALB/c mouse at 3 mg/kg by LC-MS/MS analysis. It counts as ADME, organism-based. The settings on record: in vivo.
For series [23], the system named is Mus musculus. Briefly: Inhibition of TNP-Ficoll induced antibody production in po dosed BALB/c mouse administered twice daily measured on day 4 by ELISA. It counts as functional, organism-based.
The test system of series [24] is Mus musculus. Nature of the series: Inhibition of TNP-Ficoll induced antibody production in BALB/c mouse at 2 mg/kg, po qd measured on day 4 by ELISA. Format: functional, organism-based.

Sequence of Cytochrome P450 2C19 (P33261 whole entry): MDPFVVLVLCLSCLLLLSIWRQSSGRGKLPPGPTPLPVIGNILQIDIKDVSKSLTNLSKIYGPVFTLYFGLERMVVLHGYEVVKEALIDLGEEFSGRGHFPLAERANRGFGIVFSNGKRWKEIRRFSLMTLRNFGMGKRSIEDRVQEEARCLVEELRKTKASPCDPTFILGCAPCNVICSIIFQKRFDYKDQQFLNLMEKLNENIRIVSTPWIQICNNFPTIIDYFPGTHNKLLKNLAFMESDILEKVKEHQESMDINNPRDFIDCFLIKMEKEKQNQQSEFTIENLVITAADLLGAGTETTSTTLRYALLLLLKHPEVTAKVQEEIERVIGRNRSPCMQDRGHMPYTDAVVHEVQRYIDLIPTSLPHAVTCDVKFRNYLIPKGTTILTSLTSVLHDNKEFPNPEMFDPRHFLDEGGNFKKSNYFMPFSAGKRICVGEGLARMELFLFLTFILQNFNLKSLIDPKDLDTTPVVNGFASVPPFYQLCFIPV
Sequence of Phosphatidylinositol 4,5-bisphosphate 3-kinase catalytic subunit gamma isoform (P48736 whole entry, canonical isoform): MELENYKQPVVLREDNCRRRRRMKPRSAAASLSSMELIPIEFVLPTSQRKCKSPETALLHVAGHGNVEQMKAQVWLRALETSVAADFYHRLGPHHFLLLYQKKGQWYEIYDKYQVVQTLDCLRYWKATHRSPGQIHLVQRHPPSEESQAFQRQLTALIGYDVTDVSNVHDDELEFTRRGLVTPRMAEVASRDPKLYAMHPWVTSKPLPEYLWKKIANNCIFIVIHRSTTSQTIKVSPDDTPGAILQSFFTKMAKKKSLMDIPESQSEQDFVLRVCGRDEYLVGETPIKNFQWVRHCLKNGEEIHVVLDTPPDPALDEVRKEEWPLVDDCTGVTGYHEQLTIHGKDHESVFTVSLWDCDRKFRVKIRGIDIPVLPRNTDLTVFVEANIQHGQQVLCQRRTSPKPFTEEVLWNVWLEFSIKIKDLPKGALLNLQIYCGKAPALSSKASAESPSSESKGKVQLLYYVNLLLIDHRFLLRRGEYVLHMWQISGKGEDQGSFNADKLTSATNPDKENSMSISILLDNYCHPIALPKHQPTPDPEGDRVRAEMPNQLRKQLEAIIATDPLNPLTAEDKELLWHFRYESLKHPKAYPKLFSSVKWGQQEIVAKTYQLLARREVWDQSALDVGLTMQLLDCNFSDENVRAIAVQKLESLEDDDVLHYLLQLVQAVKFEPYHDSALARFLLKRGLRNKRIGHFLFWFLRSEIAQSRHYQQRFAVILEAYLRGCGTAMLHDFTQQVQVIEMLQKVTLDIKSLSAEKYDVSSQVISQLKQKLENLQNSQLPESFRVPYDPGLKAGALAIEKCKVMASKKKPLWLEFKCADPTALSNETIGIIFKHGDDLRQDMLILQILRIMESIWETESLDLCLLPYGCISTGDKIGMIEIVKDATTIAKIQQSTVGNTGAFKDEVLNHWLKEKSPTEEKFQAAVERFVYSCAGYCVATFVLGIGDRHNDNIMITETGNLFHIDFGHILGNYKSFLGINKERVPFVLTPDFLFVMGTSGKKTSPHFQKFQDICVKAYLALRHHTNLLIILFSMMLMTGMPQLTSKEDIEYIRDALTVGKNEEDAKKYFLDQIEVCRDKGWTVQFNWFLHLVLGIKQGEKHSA
Sequence of Phosphatidylinositol 4,5-bisphosphate 3-kinase catalytic subunit alpha isoform (P42336 whole entry, canonical isoform): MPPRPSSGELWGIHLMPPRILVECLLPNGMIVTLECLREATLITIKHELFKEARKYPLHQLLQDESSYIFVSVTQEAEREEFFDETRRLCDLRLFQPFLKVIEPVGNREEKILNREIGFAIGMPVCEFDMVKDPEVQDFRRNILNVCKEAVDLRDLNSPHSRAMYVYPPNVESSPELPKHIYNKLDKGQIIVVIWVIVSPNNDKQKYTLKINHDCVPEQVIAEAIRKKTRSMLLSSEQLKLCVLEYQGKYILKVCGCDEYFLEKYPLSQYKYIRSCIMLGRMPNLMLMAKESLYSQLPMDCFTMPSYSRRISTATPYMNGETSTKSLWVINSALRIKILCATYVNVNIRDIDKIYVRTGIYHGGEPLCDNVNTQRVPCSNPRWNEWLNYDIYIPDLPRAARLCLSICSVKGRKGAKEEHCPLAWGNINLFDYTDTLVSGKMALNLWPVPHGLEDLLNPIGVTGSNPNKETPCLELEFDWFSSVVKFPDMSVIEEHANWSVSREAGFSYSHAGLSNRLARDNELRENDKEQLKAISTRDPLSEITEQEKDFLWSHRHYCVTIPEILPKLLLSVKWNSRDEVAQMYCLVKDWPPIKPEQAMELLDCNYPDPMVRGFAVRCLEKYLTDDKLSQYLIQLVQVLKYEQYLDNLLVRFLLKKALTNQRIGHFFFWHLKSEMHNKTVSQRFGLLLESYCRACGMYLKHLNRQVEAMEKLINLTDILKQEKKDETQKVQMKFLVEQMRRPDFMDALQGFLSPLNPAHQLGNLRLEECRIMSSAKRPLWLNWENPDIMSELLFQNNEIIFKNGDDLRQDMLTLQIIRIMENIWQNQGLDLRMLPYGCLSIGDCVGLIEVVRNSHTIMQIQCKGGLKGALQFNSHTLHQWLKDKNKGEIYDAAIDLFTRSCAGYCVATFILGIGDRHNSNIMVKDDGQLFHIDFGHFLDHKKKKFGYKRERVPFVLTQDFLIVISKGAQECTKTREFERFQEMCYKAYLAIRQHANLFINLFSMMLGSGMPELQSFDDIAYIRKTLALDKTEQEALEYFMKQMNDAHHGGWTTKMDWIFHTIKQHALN
Sequence of Cytochrome P450 2D6 (P10635 whole entry): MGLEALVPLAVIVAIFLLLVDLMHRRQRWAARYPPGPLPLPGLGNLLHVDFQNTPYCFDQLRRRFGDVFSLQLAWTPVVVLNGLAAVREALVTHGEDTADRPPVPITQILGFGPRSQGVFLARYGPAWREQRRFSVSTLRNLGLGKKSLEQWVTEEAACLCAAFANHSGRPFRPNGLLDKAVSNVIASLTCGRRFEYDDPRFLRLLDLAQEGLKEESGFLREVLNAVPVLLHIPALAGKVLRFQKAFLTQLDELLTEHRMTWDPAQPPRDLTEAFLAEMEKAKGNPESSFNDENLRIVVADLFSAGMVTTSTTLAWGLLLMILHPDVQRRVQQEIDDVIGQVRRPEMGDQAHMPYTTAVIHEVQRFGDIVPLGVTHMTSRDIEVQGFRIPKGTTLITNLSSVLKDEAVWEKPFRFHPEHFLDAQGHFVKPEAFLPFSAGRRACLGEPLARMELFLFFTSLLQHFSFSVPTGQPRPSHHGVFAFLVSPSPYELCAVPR
Sequence of Cytochrome P450 3A4 (P08684 whole entry): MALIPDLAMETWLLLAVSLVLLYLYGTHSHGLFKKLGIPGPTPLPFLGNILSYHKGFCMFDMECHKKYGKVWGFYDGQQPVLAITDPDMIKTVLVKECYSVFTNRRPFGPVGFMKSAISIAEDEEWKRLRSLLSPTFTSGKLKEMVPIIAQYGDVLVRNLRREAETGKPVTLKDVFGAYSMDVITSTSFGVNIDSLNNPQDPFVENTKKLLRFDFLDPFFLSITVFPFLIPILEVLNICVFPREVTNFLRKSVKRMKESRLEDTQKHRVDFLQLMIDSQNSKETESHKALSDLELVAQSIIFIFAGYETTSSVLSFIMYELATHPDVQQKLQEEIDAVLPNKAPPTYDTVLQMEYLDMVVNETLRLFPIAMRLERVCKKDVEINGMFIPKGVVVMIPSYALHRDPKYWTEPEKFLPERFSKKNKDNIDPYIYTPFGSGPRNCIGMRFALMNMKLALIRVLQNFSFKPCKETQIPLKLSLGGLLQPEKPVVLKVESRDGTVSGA
Sequence of Cytochrome P450 2C9 (P11712 whole entry): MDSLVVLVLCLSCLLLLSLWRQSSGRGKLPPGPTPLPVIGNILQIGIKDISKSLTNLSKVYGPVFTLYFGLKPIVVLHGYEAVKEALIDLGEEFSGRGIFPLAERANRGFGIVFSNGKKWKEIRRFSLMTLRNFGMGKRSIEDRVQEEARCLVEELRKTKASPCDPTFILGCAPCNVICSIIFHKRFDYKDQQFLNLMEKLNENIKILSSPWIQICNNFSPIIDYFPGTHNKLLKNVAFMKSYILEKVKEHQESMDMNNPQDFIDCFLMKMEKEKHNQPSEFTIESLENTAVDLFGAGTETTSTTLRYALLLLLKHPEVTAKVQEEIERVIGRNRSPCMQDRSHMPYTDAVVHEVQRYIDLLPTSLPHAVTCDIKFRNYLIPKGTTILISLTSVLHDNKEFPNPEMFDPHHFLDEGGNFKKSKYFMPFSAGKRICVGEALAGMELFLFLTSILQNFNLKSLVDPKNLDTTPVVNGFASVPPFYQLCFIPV

As for `COc1ncc(N2CCc3ncnc(-c4ccnc(NC5CCN(C)CC5)c4)c3C2)cc1C`, the IC50 in [1] was 7 nM; in [2] it was > 10000 nM; in series [3], > 10000 nM; in series [4], > 10000 nM; in series [5], 3.2 nM. In series [6], the CLint scaled at 0.2 µM stood at 81 mL/min/kg. Also, the solubility at 20 h, 130 µM in series [7] is > 100 µM. Besides, in series [8], the Papp at 2 h, 50 µM was determined as 9.3 ×10⁻⁶ cm/s. Also, the “inhibition (INH)” value in [9], in series [10], in [11], in [12], in series [13] and in [14] was “Not Active” throughout. For the same compound, the clearance in series [15] was 21.9 mL/min/kg. Besides, the Vd in [16] is 7.17 L/kg. This compound also had a half-life in [17] of 4 h. In series [18], this compound displayed a Cmax of 160 ng/mL. Moreover, in [19], the Tmax was 6 h. Besides, in series [20], the AUC at 24 h turned out to be 2210 ng·h/mL. The fraction unbound at 6 h, 2 µM in [21] amounted to 0.3. Further, the bioavailability in series [22] amounted to 97%. In addition, the inhibition result in series [23] is “Dose-dependent effect”. In series [24], the inhibition result is “Active”.
